Values belong to the compound of their own block, whether it stands above or below them.
Assays:
[1] = target: Chymotrypsinogen A (Bos taurus) (UniProt P00766); assay: Compound was evaluated for inhibitory activity against alpha-chymotrypsin at a concentration of 5.0 x 10e-4; NI = No inactivation
[2] = target: T1, Chymotrypsin-like elastase family member 2A (Sus scrofa) (UniProt P08419); assay: Compound was evaluated for inhibitory activity against PP elastase at a concentration of 1.95 x 10e-2; NI = No inactivation
T1 sequence (whole entry): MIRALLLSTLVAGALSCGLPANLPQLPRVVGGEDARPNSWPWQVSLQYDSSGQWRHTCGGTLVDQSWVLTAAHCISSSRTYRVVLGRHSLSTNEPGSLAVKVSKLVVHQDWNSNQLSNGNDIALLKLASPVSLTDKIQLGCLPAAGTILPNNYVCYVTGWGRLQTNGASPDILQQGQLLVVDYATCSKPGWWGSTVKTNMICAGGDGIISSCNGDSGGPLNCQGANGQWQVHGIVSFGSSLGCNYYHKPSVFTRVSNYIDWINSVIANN

[3] = target: Chymotrypsinogen A (Bos taurus) (UniProt P00766); assay: Compound was evaluated for inhibitory activity against alpha-chymotrypsin at a concentration of 1.95 x 10e-2; NI = No inactivation
[4] = target: T1, Chymotrypsin-like elastase family member 2A (Sus scrofa); assay: Compound was evaluated for inhibitory activity against PP elastase at a concentration of 1.2 x 10e-3; NI = No inactivation
[5] = target: Chymotrypsinogen A (Bos taurus) (UniProt P00766); assay: Compound was evaluated for inhibitory activity against alpha-chymotrypsin at a concentration of 5.0 x 10e-4
[6] = target: T1, Chymotrypsin-like elastase family member 2A (Sus scrofa); assay: Compound was evaluated for inhibitory activity against PP elastase at a concentration of 2.0 x 10e-5; NI = No inactivation
[7] = target: Chymotrypsinogen A (Bos taurus) (UniProt P00766); assay: Compound was evaluated for inhibitory activity against alpha-chymotrypsin at a concentration of 7.5 x 10e-6
[8] = target: Chymotrypsinogen A (Bos taurus) (UniProt P00766); assay: Compound was evaluated for inhibitory activity against alpha-chymotrypsin at a concentration of 6.0 x 10e-3

Structure (SMILES): O=C1CCC2C(O1)C2(Cl)Cl (stereo not drawn)
K obs / 1 [2]: No inactivation
K obs / 1 [3]: No inactivation

Structure (SMILES): C[C@H](NC(=O)CCC(=O)O)C(=O)N[C@@H](C)C(=O)N[C@@H](Cc1ccccc1)C(=O)OC1CC1(Cl)Cl (stereo partly drawn)
K obs / 1 [4]: No inactivation
K obs / 1 [5]: 0.337 M⁻¹ s⁻¹

Structure (SMILES): O=C(O)CCC(=O)N[C@@H](Cc1ccccc1)C(=O)OC1CC1(Cl)Cl (stereo partly drawn)
K obs / 1 [8]: 0.054 M⁻¹ s⁻¹

Next, values leading:

K obs / 1 [1]: No inactivation
Structure (SMILES): O=C1OCCCC1Cc1ccccc1 (stereo not drawn)

K obs / 1 [6]: No inactivation
K obs / 1 [7]: 54 M⁻¹ s⁻¹
Structure (SMILES): O=C1OC2C(CC1Cc1ccccc1)C2(Cl)Cl (stereo not drawn)
